According to patent US20120135989A1, “AZAINDOLE DERIVATIVE” (CRYSTALGENOMICS, INC., priority 2010, published 2012):

target: T1, human Cdc7/human ASK conjugated protein (Homo sapiens, UniProt O00311); experiment: Cdc7 protein kinase inhibitory action (Cdc7-ASK kinase activity, 32P-labeled MCM2); assay type: biochemical; conditions: substrate mouse MCM2-4(his)-6-7(his) conjugated protein, 0.1 mM ATP, 30° C. for 45 minutes; read-out: Activity (uM) ELISA (IC50)
T1 construct: purchased CARNA BIOSCIENCES
T1 sequence (O00311 whole entry): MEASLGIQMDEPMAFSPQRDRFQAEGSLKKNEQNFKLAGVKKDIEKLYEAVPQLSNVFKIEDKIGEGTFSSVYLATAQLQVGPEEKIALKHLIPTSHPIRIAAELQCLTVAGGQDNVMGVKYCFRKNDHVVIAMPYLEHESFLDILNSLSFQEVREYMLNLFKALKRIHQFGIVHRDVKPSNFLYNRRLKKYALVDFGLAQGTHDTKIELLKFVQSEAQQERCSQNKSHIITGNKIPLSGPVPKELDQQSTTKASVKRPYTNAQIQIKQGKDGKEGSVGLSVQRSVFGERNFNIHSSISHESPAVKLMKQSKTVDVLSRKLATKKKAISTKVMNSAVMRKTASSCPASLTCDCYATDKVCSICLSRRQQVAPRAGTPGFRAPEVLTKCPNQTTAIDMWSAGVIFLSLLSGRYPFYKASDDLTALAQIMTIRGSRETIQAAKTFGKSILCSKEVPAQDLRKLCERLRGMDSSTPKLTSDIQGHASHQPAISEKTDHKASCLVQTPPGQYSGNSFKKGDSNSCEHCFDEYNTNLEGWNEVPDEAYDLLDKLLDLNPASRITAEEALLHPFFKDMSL
T1 sequence (Q9UBU7 whole entry partner): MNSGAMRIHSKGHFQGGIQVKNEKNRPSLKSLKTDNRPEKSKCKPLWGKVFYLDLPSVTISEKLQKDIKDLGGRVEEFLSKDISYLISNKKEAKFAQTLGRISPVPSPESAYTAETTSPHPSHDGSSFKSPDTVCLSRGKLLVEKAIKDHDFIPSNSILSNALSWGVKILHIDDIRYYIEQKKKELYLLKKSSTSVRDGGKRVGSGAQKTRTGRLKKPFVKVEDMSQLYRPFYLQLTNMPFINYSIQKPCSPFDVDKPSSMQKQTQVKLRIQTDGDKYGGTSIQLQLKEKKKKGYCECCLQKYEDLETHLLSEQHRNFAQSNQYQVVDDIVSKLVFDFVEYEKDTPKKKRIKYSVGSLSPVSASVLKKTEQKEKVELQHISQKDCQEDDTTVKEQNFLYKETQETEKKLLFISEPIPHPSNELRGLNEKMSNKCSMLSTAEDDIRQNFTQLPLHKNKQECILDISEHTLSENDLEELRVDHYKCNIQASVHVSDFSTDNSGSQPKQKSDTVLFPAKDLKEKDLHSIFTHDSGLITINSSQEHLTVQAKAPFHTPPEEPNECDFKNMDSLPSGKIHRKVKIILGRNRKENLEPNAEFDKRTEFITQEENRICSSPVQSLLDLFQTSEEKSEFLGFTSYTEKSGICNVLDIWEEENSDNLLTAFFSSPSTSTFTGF

IC50 | Compound
0.0011 µM | (2Z,5Z)-2-{4-(1-methyl-piperidin-4-yl)oxy-2-methylphenyl}azamethylene-5-(1H-pyrrolo[2,3-b]pyridin-3-yl)methylene-1,3-thiazolidin-4-one [Compound 8]
0.0017 µM | Cc1cc(OCCN2CCOCC2)ccc1/N=C1/NC(=O)/C(=C/c2c[nH]c3ncccc23)S1 [Compound 9, (2Z,5Z)-2-{4-(2-morpholino)ethoxy-2-metlhylphenyl}azamethylene-5-(1H-pyrrolo[2,3-b]pyridin-3-yl)methylene-1,3-thiazolidin-4-one]

target: T1, human Cdc7/human ASK conjugated protein; experiment: as above; assay type: biochemical; conditions: substrate mouse MCM2-4(his)-6-7(his) conjugated protein, 0.1 mM ATP, 30° C. for 45 minutes; read-out: Activity (uM) ELISA (IC50); remark: another data set of the same source
Method: Cdc7 protein kinase inhibitory action of the (di)azaindole derivatives shown in Table 4 was evaluated according to the following operations.
As a substrate for evaluating the enzymatic activity, mouse MCM2-4(his)-6-7 (his) conjugated protein was synthesized. First, the following genes were cloned into a pAcUW31 vector (Pharmingen).
Mouse MCM2 (Genbank/EMBL No. D86725);
N-His-mouse MCM4 (Genbank/EMBL No. D26089, a His6 tag was added to an N-terminal);
Mouse MCM6 (Genbank/EMBL No. D86726), and
N-His-mouse MCM7 (Genbank/EMBL No. D26091, a His6 tag was added to an N-terminal).
The Mouse MCM2 gene and the N-His-mouse MCM7 gene were inserted into the BamHI site and the EcoRI site of the pAcUW31 vector (Mom2-7 Vector), respectively. The mouse MCM6 gene and the N-His-mouse MCM4 gene were inserted into the BamHI site and the EcoRI site of the pAcUW31 vector (MGm-4-6 Vector), respectively. Then, in order to produce a recombinant mouse MCM2-7 (his) and mouse MCM4 (his)-6 Baculovirus, BaculoGold AoNPV Baculovirus DNA (BD/Pharmingen) and an Mcm2-7 Vector or an Mcm-4-6 Vector were cotransfected to SD insect cells. The obtained Mcm2-7 and Mom-4-6 virus were coinfected to Hi5 insect cells. Thereby, a mouse MCM2-4 (his)-6-7 (his) conjugated protein was obtained. Purified mouse MCM2-4 (his)-6-7 (his) conjugated protein (0.5 μg) was used as a substrate.
The substrate (mouse MCM2-4(his)-6-7(his) conjugated protein) (0.5 μg) and kinase enzyme (human Cdc7/human ASK conjugated protein, CARNA BIOSCIENCES) (0.1 μg) were mixed in a microtube. A kinase reaction buffer containing 0.1 μL of γ-^32P ATP (Perkin Elmer) was added as a tracer into the same microtube. The composition of the kinase buffer includes the followings.
40 mM HEPES-KOH buffer pH 7.6,
Furthermore, 0.5 μL of each of the test compounds ((di)azaindole derivatives 10 μM, 100 μM, and 1000 μM, respectively) was added and reacted at 30° C. for 45 minutes. After the reaction, the substrate was separated by SDS-PAGE method, and protein was stained by the silver staining method (2D-silver staining reagent H “Daiichi,” Daiichi Pure Chemicals Co., Ltd.).
The radioactivity of ^32P-labeled MCM2 protein was detected by autoradiography, and the radioactivity of the band of MCM2 protein was measured by a liquid scintillation counter (LSC-6100, ALOKA). As to the Cdc7-ASK kinase activity, the radioactivity at the time when the each of the test compounds was added was calculated in percent when the radioactivity at the time when DMSO (0.5 μL) was added instead of the test compound (0.5 μL) that had been added immediately before the reaction was made to be 100%. Based on the obtained results, IC 50 value of each test compound was calculated. IC50 with respect to Cdc7-ASK kinase of the main (di)azaindole derivatives shown in Table 5 was about 0.001 μM to 0.008 μM.

IC50 | Compound
0.003 µM | Cc1cc(OC2CCN(C)C2)ccc1/N=C1/NC(=O)/C(=C/c2c[nH]c3ncccc23)S1 (centres unmarked) [Compound 6, (2Z,5Z)-2-{4-(1-methylpyrrolidin-3-yl)oxy-2-methylphenyl}azamethylene-5-(1H-pyrrolo[2,3-b]pyridin-3-yl)methylene-1,3-thiazolidin-4-one]
0.0021 µM | Cc1cc(OCCN2CCN(C)CC2)ccc1/N=C1/NC(=O)/C(=C/c2c[nH]c3ncccc23)S1 [Compound 7, (2Z,5Z)-2-[4-{2-(4-methylpiperazin-1-yl)}ethoxy-2-methylphenyl]azamethylene-5-(1H-pyrrolo[2,3-b]pyridin-3-yl)methylene-1,3-thiazolidin-4-one]
0.002 µM | CN1CCC(Oc2ccc(/N=C3/NC(=O)/C(=C/c4c[nH]c5ncccc45)S3)c(C(F)(F)F)c2)C1 (centres unmarked) [Compound 14, (2Z,5Z)-2-{4-(1-methylpyrrolidin-3-yl)oxy-2-trifluoromethylphenyl}azamethylene-5-(1H-pyrrolo[2,3-b]pyridin-3-yl)methylene-1,3-thiazolidin-4-one]
0.018 µM | O=C1N/C(=N/c2ccc(C(=O)O)cc2)S/C1=C\c1c[nH]c2ncccc12 [Compound 4, (2Z,5Z)-2-(4-carboxyphenyl)azamethylene-5-(1H-pyrrolo[2,3-b]pyridin-3-yl)methylene-1,3-thiazolidin-4-one]
0.003 µM | CN(C)CCOc1ccc(/N=C2/NC(=O)/C(=C/c3c[nH]c4ncccc34)S2)c(C(F)(F)F)c1 [Compound 13, (2Z,5Z)-2-{4-(2-dimethylamino)ethoxy-2-trifluoromethylphenyl}azamethylene-5-(1H-pyrrolo[2,3-b]pyridin-3-yl)methylene-1,3-thiazolidin-4-one]
0.0014 µM | Cc1cc(O)ccc1/N=C1/NC(=O)/C(=C/c2c[nH]c3ncccc23)S1 [Compound 3, (2Z,5Z)-2-(4-hydroxy-2-methylphenyl)azamethylene-5-(1H-pyrrolo[2,3-b]pyridin-3-yl)methylene-1,3-thiazolidin-4-one]
0.001 µM | Cc1ccc(/N=C2/NC(=O)/C(=C/c3c[nH]c4ncccc34)S2)c(C)c1 [Compound 2, (2Z,5Z)-2-(2,4-dimethylphenyl)azamethylene-5-(1H-pyrrolo[2,3-b]pyridin-3-yl)methylene-1,3-thiazolidin-4-one]
0.003 µM | CN1CCC(Oc2ccc(/N=C3/NC(=O)/C(=C/c4c[nH]c5ncncc45)S3)c(Cl)c2)CC1 [Compound 21, (2Z,5Z)-2-{2-chloro-4-(1-methyl-piperidin-4-yl)oxyphenyl}azamethylene-5-(7H-pyrrolo[2,3-d]pyrimidin-5-yl)methylene-1,3-thiazolidin-4-one]
0.003 µM | CN1CCC(Oc2ccc(/N=C3/NC(=O)/C(=C/c4c[nH]c5ncccc45)S3)c(C(F)(F)F)c2)CC1 [Compound 23, (2Z,5Z)-2-{4-(1-methyl-piperidin-4-yl)oxy-2-trifluoromethylphenyl}azamethylene-5-(1H-pyrrolo[2,3-b]pyridm-3-yl)methylene-1,3-thiazolidin-4-one]
0.002 µM | CN1CCC(Oc2ccc(/N=C3/NC(=O)/C(=C/c4c[nH]c5ncncc45)S3)c(Cl)c2)C1 (centres unmarked) [Compound 18, (2Z,5Z)2-{2-chloro-4-(1-methylpyrrolidin-3-yl)oxyphenyl}azamethylene-5-(7H-pyrrolo[2,3-d]pyrimidin-5-yl)methylene-1,3-thiazolidin-4-one]
0.006 µM | CN(C)CCOc1ccc(/N=C2/NC(=O)/C(=C/c3c[nH]c4ncncc34)S2)c(C(F)(F)F)c1 [Compound 19, (2Z,5Z)-2-{4-(2-dimethylamino)ethoxy-2-trifluoromethylphenyl}azamethylene-5-(7H-pyrrolo[2,3-d]pyrimidin-5-yl)methylene-1,3-thiazolidin-4-one]
0.001 µM | CN1CCC(Oc2ccc(/N=C3/NC(=O)/C(=C/c4c[nH]c5ncccc45)S3)c(Cl)c2)CC1 [Compound 22, (2Z,5Z)-2-{2-chloro-4-(1-methyl-piperidin-4-yl)oxyphenyl}azamethylene-5-(1H-pyrrolo[2,3-b]pyridin-3-yl)methylene-1,3-thiazolidin-4-one]
0.006 µM | Cc1cc(OC2CCN(C)CC2)ccc1/N=C1/NC(=O)/C(=C/c2c[nH]c3ncncc23)S1 [Compound 16, (2Z,5Z)-2-{4-(1-methyl-piperidin-4-yl)oxy-2-methylphenyl}azamethylene-5-(7H-pyrrolo[2,3-d]pyrimidin-5-yl)methylene-1,3-thiazolidin-4-one]
0.007 µM | CN1CCC(Oc2ccc(/N=C3/NC(=O)/C(=C/c4c[nH]c5ncncc45)S3)c(C(F)(F)F)c2)C1 (centres unmarked) [Compound 20, (2Z,5Z)-2-{4-(1-methylpyrrolidin-3-yl)oxy-2-trifluoromethylphenyl}azamethylene-5-(7H-pyrrolo[2,3-d]pyrimidin-5-yl)methylene-1,3-thiazolidin-4-one]
0.005 µM | Cc1cc(OCCN(C)C)ccc1/N=C1/NC(=O)/C(=C/c2c[nH]c3ncncc23)S1 [Compound 11, (2Z,5Z)-2-{4-(2-dimethylamino)ethoxy-2-methylphenyl}azamethylene-5-(7H-pyrrolo[2,3-d]pyrimidin-5-yl)methylene-1,3-thiazolidin-4-one]
0.008 µM | Cc1cc(OC2CCN(C)C2)ccc1/N=C1/NC(=O)/C(=C/c2c[nH]c3ncncc23)S1 (centres unmarked) [Compound 15, (2Z,5Z)-2-{4-(1-methylpyrrolidin-3-yl)oxy-2-methylphenyl}azamethylene-5-(7H-pyrrolo[2,3-d]pyrimidin-5-yl)methylene-1,3-thiazolidin-4-one]
0.0012 µM | COc1ccc(/N=C2/NC(=O)/C(=C/c3c[nH]c4ncccc34)S2)c(C)c1 [Compound 1, (2Z,5Z)-2-(4-methoxy-2-methylphenyl)azamethylene-5-(1H-pyrrolo[2,3-b]pyridin-3-yl)methylene-1,3-thiazolidin-4-one]
0.001 µM | CN1CCC(Oc2ccc(/N=C3/NC(=O)/C(=C/c4c[nH]c5ncccc45)S3)c(Cl)c2)C1 (centres unmarked) [Compound 12, (2Z,5Z)-2-{2-chloro-4-(1-methylpyrrolidin-3-yl)oxyphenyl}azamethylene-5-(1H-pyrrolo[2,3-b]pyridin-3-yl)methylene-1,3-thiazolidin-4-one]
0.002 µM | CN(C)CCOc1ccc(/N=C2/NC(=O)/C(=C/c3c[nH]c4ncncc34)S2)c(Cl)c1 [Compound 17, (2Z,5Z)-2-{2-chloro-4-(2-dimethylamino)ethoxyphenyl}azamethylene-5-(7H-pyrrolo[2,3-d]pyrimidin-5-yl)methylene-1,3-thiazolidin-4-one]
0.002 µM | CN(C)CCOc1ccc(/N=C2/NC(=O)/C(=C/c3c[nH]c4ncccc34)S2)c(Cl)c1 [Compound 10, (2Z,5Z)-2-{2-chloro-4-(2-dimethylamino)ethoxyphenyl}azamethylene-5-(1H-pyrrolo[2,3-b]pyridin-3-yl)methylene-1,3-thiazolidin-4-one]
0.0019 µM | Cc1cc(OCCN(C)C)ccc1/N=C1/NC(=O)/C(=C/c2c[nH]c3ncccc23)S1 [Compound 5, (2Z,5Z)-2-{4-(2-dimethylamino)ethoxy-2-methylphenyl}azamethylene-5-(1H-pyrrolo[2,3-b]pyridin-3-yl)methylene-1,3-thiazolidin-4-one]
